In patent US20240083933A1, “DISACCHARIDES FOR TREATING BONE DISEASES” (UNIVERSITE DE PICARDIE JULES VERNE, priority 2020, published 2024):

What was measured:
MC3T3-E1 cells = test: Calcium assay (pro-calcifying activity) on mouse pre-osteoblastic cells; type: cell-based; settings: for increase in calcification relative to the mineralizing medium: MC3T3-E1, 25 days
Method: FIG. 1 represents the calcium dosage in the MC3T3-E1 culture medium (in […] of protein per well) after 9 days of exposure of these cells to 4 mM of Pi ([…]) (control+Pi) and 4 mM of Pi in the presence of 30 μM of each of the compounds referenced DP2SNA, DP2NA, DP2K and DP2S;
For all experiments, a mouse pre-osteoblastic cell line (MC3T3-E1, ATCC) and human primary osteoblastic cells (HOb, Promocell) were used. The mouse pre-osteoblastic cells were cultured in 75 cm^2 flasks, containing 15 mL of α-MEM medium (M4526, SIGMA) and 10% fetal calf serum (FCS), containing 1% Penicillin/Streptomycin antibiotics and 1% glutamine. Similarly, human HOb cells were cultured in 75 cm 2 flasks containing 15 mL of proliferation medium (Human Osteoblast Proliferation Medium, PromoCell). The cells are maintained in the oven at 37° C., with 5% CO2 and 90% humidity. The medium was changed every three days.
MC3T3-E1 cells were seeded in 6-well plates at 63,700 cells/well to be treated in order to extract RNA or for alkaline phosphatase enzymatic activity assay and in 48-well plates for the calcium assay at 5250 cells/well. The HOb cells were seeded at 182,000 cells/well in 6-well plates for the extraction of RNA or for the alkaline phosphatase enzymatic activity assay; at 15,000 cells/well in 48-well plates for the calcium assay; at 10,000 cells/well in 48-well plates for the MTT test or the WST-1 test and at 100,000 cells/well in 6-well plates for the protein extraction or for the fluorescence.
In order to induce the mineralization, the MC3T3-E1 cells were treated with α-MEM medium containing 5% FCS to which 10 mM of β-glycerophosphate and 50 μg/mL of ascorbic acid are added. The HOb cells were treated with the “Osteoblast mineralization medium” (Promocell). […] After filtration, the cells were treated with the respective media (500 μL per well of the 48-well plate and 2 mL per well of the 6-well plate).
The release of calcium in the culture medium of mouse pre-osteoblastic cells (MC3T3-E1) has been studied.
An increase in calcification was observed, relative to the mineralizing medium (FIG. 2), in the presence of DP2R0 at 15 μM (40±2%), at 30 μM (28±18%) and at 50 μM (40±28%), and DP2NA at 15 μM (15±14%), at 30 μM (33±12%) and at 50 μM (10±19%).

HOb cells [1] = test: Alkaline phosphatase (ALP) enzymatic activity assay, HOb; type: cell-based, human; settings: 7 days post-treatment, 30 μM
Excerpt: ALP is an enzyme synthesized by osteoblasts. It hydrolyses phosphoric esters which inhibit the mineralization by releasing a hydroxyl group and a phosphate. The osteoblasts produce matrix vesicles, reservoirs of alkaline phosphatases and ions, which, when released into the extracellular medium, would initiate the mineralization of the osteoid tissue by promoting the local concentrations of calcium ions and phosphates. Cells have been seeded in 6-well plates at 63700 cells/well for MC3T3-E1 and at 182000 cells/well for HOb.
After the PBS rinses, 50 μl of ALP Assay Buffer were added to the wells, the bottom of the wells was scraped and then the 50 μl were taken. A centrifugation for 3 minutes at 13000 G was carried out to remove the insoluble material. In a 96-well plate, 10 μl of each sample to be tested are placed with 70 μl of the ALP Assay buffer and 50 μl of the 5 mM pNPP solution. In parallel, the calibration range was prepared by placing, in the same 96-well plate. The reaction was incubated for 60 min at 25° C., shielded from light. The reaction was stopped by adding 20 μl of the Stop Solution. The optical density was measured at 405 nm.
After the ALP enzymatic activity assay, a protein assay was performed in order to normalize the results of the ALP assay depending on the number of proteins. […] The optical density was measured at 565 nm to determine the amount of proteins.

HOb cells [2] = test: Cytotoxicity, MTT test; type: cell-based, human; settings: 30 μM, culture or mineralizing medium, D2, D4, D7, D14
Method: In order to study the toxicity of DP2, cell viability was determined using the MTT test (3-(4,5-dimethyl-2-thiazolyl)-2,5-diphenyl-2H-tetrazolium bromide). The HOb cells were seeded in 48-well plates (10,000 cells per well), two days later the cells were treated with DP2 30 μM and the MTT test was carried out on D2, D4, 7 and D14 post-treatment.
After washing the cells with DMEM (Dulbecco's Modified Eagle Medium) without phenol red, 250 μl of the diluted MTT solution were added to each well and the plate is incubated at 37° C. with 5% CO2 for 1 hour. The amount of MTT reduced in formazan is proportional to living cells. The purple formazan crystals were solubilized in 220 μl of DMSO and after stirring to homogenize the coloration, the absorbance was measured at 560 nm (Envision, PerkinElmer). The cytotoxicity was assessed by comparing the cell viability between the control group and the experimental group.
Before determining whether our molecule alters the survival of osteoblastic cells, its cytotoxicity was tested on the HOb cells by the MTT and WST-1 tests. The cells were treated with DP2 at 30 μM with the culture medium (Ctrl) or the mineralizing medium (Min) for 2, 4, 7 and 14 days (D).

In the case of CCCO[C@H]1OC(CO)[C@@H](O[C@@H]2OC(CO)[C@@H](O)C(O)C2NC(C)=O)C(O)C1OC(C)=O (stereo partly drawn) [DP2, n-propyl, 2-O-acetyl-α-D-Glucopyranoside, 4-O-(2-acetamido-2-deoxy-β-D-glucopyranosyl)], the “production of calcium by the MC3T3-E1 cells (calcium dosage in culture medium)” value (MC3T3-E1 cells; 9 days, 4 mM Pi, 30 μM compound, vs control+Pi (FIG. 1)) is reported as “increase the production of calcium”, the “increase in calcification relative to the mineralizing medium” value (MC3T3-E1 cells; 15 μM) is reported as 40±2% and the “increase in calcification relative to the mineralizing medium” value (MC3T3-E1 cells; 30 μM) is reported as 28±18%. The “increase in calcification relative to the mineralizing medium” value (MC3T3-E1 cells; 50 μM) was 40±28%, the “ALP enzymatic activity relative to the mineralized medium alone (100%)” value (HOb cells [1]; listed as DP2R0) was 210.494±14.979% and the “ALP enzymatic activity relative to the mineralized medium alone (100%)” value (HOb cells [1]; listed as DP2R2) was 149.749%. For the same compound, the “cell viability, MTT test” value (HOb cells [2]) was “no significant difference”.
